Where “and” joins values, the source holds several entries; their conditions need not be identical. Identical values can stand only once.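 The compound was tested at five concentrations on cells cultured in 96-well plates, with a 48-hour exposure period. Abbreviation: GI50, concentration required for 50% inhibition of growth. TGI marks complete inhibition of growth.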
How the values were obtained:
Assay in all cases: growth of human tumour cells (NCI), 48 h
[1] = test system: SK-MEL-5 melanoma
[2] = test system: 786-0 renal
[3] = test system: A498 renal
[4] = test system: RXF 393 renal
[5] = test system: IGROV1 ovarian
[6] = test system: RPMI-8226 leukemia
[7] = test system: HOP-62 NSCLC
[8] = test system: A549 NSCLC
[9] = test system: SNB-75 CNS

Row | Compound | TGI [1] [µM] | TGI [2] [µM] | TGI [3] | TGI [4] [µM] | TGI [5] [µM] | TGI [6] [µM] | TGI [7] [µM] | TGI [8] [µM] | TGI [9] [µM] | GI50 [1] [µM] | GI50 [2] [µM] | GI50 [3] [µM] | GI50 [4] [µM] | GI50 [5] [µM] | GI50 [8] | GI50 [9] [µM] | GI50 [6] [µM] | GI50 [7] [µM]
1 | NC(=O)c1ncn(C2OC(CO)C(O)C2O)c1NC(=S)NC(=O)c1ccccc1 (stereo unspecified) | > 100 | > 100 | > 100 µM | > 100 | > 100 | > 100 | > 100 | > 100 | > 100 | – | – | – | – | – | – | – | – | –
2 | CC(=O)[O-].O=[N+]([O-])c1ccc([O-])c(C=NCCN=Cc2cc([N+](=O)[O-])ccc2[O-])c1.[Mn+3] | > 100 | > 100 | > 100 µM | > 100 | 19.9 | – | – | > 100 | > 100 | > 100 | > 100 | > 100 | > 100 | 2.73 | > 100 µM | > 100 | – | –
3 | C1=CC=C2NCCSCCNC3=CC=CC=CC3=NCCSCCN=C2C=C1 | > 100 | > 100 | > 100 µM | – | > 100 | > 100 | > 100 | > 100 | > 100 | – | – | – | – | – | – | – | – | –
4 | O=C1[C@H]2ON(c3ccccc3)C(c3cccc([N+](=O)[O-])c3)[C@H]2C(=O)N1c1ccc(Cc2ccc(N3C(=O)[C@@H]4ON(c5ccccc5)C(c5cccc([N+](=O)[O-])c5)[C@@H]4C3=O)cc2)cc1 (stereo partly specified) | > 100 | > 100 | 97.5 µM | > 100 | > 100 | > 100 | > 100 | > 100 | > 100 | – | – | – | – | – | – | – | – | –
5 | COc1ccc(C2NC(=S)NC3=C2COc2ccc(F)cc23)cc1OC (stereo unspecified) | 30.7 | > 100 | 36.1 µM | 60.8 | > 100 | > 100 | > 100 | 36.7 | – | 13.5 | 28.6 | 13.4 | 18.9 | 29.8 | 10.9 µM | – | 13.5 | 26.8
6 | CCCCOP1(=O)C=CC(Cl)=C(C)C1 (stereo unspecified) | – | 49.3 | – | – | – | 85.6 | > 100 | > 100 | 49.6 | – | – | – | – | – | – | – | – | –
7 | CC(C)(C)c1cc(C(=O)O)c(C(c2ccccc2)c2ccccc2C(=O)O)c(C(=O)O)c1 (stereo unspecified) | – | > 100 | – | > 100 | – | – | > 100 | > 100 | 42.2 | – | – | – | – | – | – | – | – | –
8 | C=C1c2ccccc2N(S(=O)(=O)c2ccc(C)cc2)C12CCCCC2 | > 100 | > 100 | – | > 100 | > 100 | > 100 | > 100 | > 100 | > 100 | – | – | – | – | – | – | – | – | –
9 | CN1C=C(C(N)=O)C2CC(O)[C@@](NC(=O)CS(N)(=O)=O)(C(=O)O)C2C1 (stereo partly specified) | 15.7 | 16.4 | 4.96 µM | 4.16 | 7.83 | 58.9 | 4.27 | > 36.2 | 7.6 | – | – | – | – | – | – | – | – | –
10 | O=C1OC(c2ccc(Cl)c3ccccc23)c2ccccc21 (stereo unspecified) | > 100 | > 100 | > 100 µM | > 100 | > 100 | > 100 | > 100 | > 100 | 51.1 | – | – | – | – | – | – | – | – | –
11 | CCCC/C=C1\CCC(CN2CCCC2)C1=O (stereo unspecified) | 31.1 | 3.62 | 28.2 µM | – | 34.2 | – | 33.3 | 40.3 | 32.4 | – | – | – | – | – | – | – | – | –
12 | Cc1cc(N(CCC#N)CCC#N)ccc1/C=C/C(=O)Nc1ccccc1Cl | > 100 | > 100 | > 100 µM | – | > 100 | > 100 | > 100 | > 100 | > 100 | – | – | – | – | – | – | – | – | –
13 | Cc1nnc(N=Nc2c(O)[nH]c3ccccc23)[nH]c1=O | – | > 100 | > 100 µM | – | > 100 | > 100 | > 100 | > 100 | – | – | – | – | – | – | – | – | – | –
14 | CN1C(=O)CC2(C)c3cc(C=O)ccc3N(C)C12 (stereo unspecified) | > 100 | > 100 | > 100 µM | > 100 | > 100 | – | > 100 | > 100 | > 100 | – | – | – | – | – | – | – | – | –
15 | Cc1cc(S(N)(=O)=O)c(S/C(=N\NS(=O)(=O)c2ccccc2)c2ccc(Cl)c(Cl)c2)cc1Cl | > 100 | > 100 | 87.1 µM | > 100 | > 100 | > 100 | > 100 | 96.9 | – | 40.6 | 54.9 | 35 | 33.3 | 44 | 32.2 µM | – | 28.8 | 63.5
16 | COc1cc2c(c(OC)c1OC)-c1ccc(SC)c(=O)cc1[C@@H](NC(=O)c1ccc(F)cc1)CC2 | – | 11.5 | 0.0757 µM and < 0.01 µM | – | > 100 | – | 39.9 | > 100 | < 0.01 | 0.0305 | < 0.01 | < 0.01 | – | < 0.01 | 0.0489 µM and < 0.01 µM | < 0.01 | – | < 0.01
17 | C=CCN(N=O)C(=O)ON1C(=O)CCC1=O | – | > 100 | > 100 µM | > 100 | > 100 | > 100 | > 100 | > 100 | > 100 | – | – | – | – | – | – | – | – | –
18 | c1cc2ccc1C1NCCCN1CCN1CCCNC1c1ccc(cc1)C1NCCCN1CCN1CCCNC21 (stereo unspecified) | > 100 | > 100 | > 100 µM | – | > 100 | > 100 | > 100 | > 100 | > 100 | – | – | – | – | – | – | – | – | –

From PubChem BioAssay (NCI)
